Measured values from patent US10543189B2, “2-acetylnaphtho[2,3-b]furan -4,9-dione for use on treating cancer” (Boston Biomedical, Inc., priority 2013, dated 2020).
Where “and” joins values, the source holds several entries; their conditions need not be identical. Identical values can stand only once. Like-named read-outs stand apart in the source and are kept apart here.

Assays:
Assay type in all cases: in vivo, human
[1] = system: solid tumor that is metastatic, unresectable, or recurrent; experiment: Phase I dose escalation trial: preliminary antitumor activity
Method: Each cycle consists of twice-daily oral administration of the compound for 4 weeks. Cycles were repeated every 4 weeks (28 days) until progression of disease, unacceptable toxicity, or another discontinuation criterion is met. The dose escalation trial was conducted as open label and multicenter trial. A modified Simon accelerated titration scheme was used for dose escalation.
The primary objective of the trial was to determine the safety, tolerability, and recommended phase II dose (RP2D). The secondary objectives of the trial were to determine the pharmacokinetic profile of the compound, pharmacodynamics of the compound, and preliminary antitumor activity of the compound.
The inclusion criteria included histologically or cytologically confirmed solid tumor that is metastatic, unresectable, or recurrent; >18 years of age; Measurable disease by RECIST; and Kamofsky ≥70%. The exclusion criteria included chemotherapy, radiotherapy, immunotherapy or investigational agent within 4 weeks of first dose; surgery within 4 weeks of first dose; and known brain metastases.

[2] = Phase I dose escalation trial: pharmacokinetic profile; settings: for Tmax / AUC(0-t) / concentration at 24 h / half-life / Cmax / AUC: human, plasma, oral, patient plasma; for AUC(0-t): read-out: AUC0-24; for concentration at 24 h: read-out: C24h; for half-life: read-out: T1/2,t (converted)
Method: Pharmacokinetics profile with oral bid dosing was also studied. The plasma concentration of the drug reached several folds over the efficacious concentration (in vitro IC50) as illustrated in Table 8.
To maintain drug plasma concentration at or above the efficacious level for a desirable duration and to further increase peak plasma concentration, we studied the pharmacokinetics of a 500 mg BID regimen (at 4 hour interval between two doses on the same day or “q4h”), and compared it to that of a 500 mg QD regimen (FIG. 1). […] In another suitable dosing regimen, 500 mg of Compound 1 were administered three times a day (TID) to human subjects.

[3] = Pharmacokinetics when taken fasting, with milk or with food; settings: for Tmax: human, in vivo, oral
Method: In yet another suitable dosing regimen, Compound 1 was administered with a fluid, e.g., a milk or water, with empty stomach which improves pharmacokinetical exposure (Table 12). Counterintuitively, milk helped patients with gastrointestinal adverse effects.
In yet another suitable dosing regimen, Compound 1 was administered with food which delayed the Tmax (Table 13).

β-catenin = experiment: Immunohistochemistry of CRC patient tumor tissue for β-catenin; settings: FIG. 4A
Method: CRC patient's archival tumor tissue samples were analyzed through immunohistochemistry (IHC) using labeled antibodies against β-catenin. […] For instance, close to 40% of the patients with high nuclear β-catenin levels before treatment survived longer than 100 weeks whereas none of those with high levels of membranous β-catenin survived beyond 25 weeks. This further confirms that the Compound of the Invention disrupts or somehow modulates the β-catenin function, and that the β-catenin pathway is implicated in colorectal cancers.

[4] = Total Daily Dose 20 mg, Colon adencarcinoma
[5] = Total Daily Dose 400 mg, Colon adenocarcinoma
[6] = Total Daily Dose 400 mg, Ovarian carcinoma
[7] = Total Daily Dose 500 mg, Breast carcinoma (triple negative)
[8] = 20 mg, Total Daily Dose 20 (mg), qd
[9] = 40 mg, Total Daily Dose 40 (mg), qd
[10] = 80 mg, Total Daily Dose 80 (mg), bid q4h
[11] = 80 mg, Total Daily Dose 80 (mg), qd
[12] = 160 mg, Total Daily Dose 160 (mg), bid q4h
[13] = 320 mg, Total Daily Dose 320 (mg), bid q4h
[14] = 400 mg, Total Daily Dose 400 (mg), bid q4h
[15] = 600 mg, Total Daily Dose 600 (mg), bid q4h
[16] = 800 mg, Total Daily Dose 800 (mg), bid q4h
[17] = 1000 mg, Total Daily Dose 1000 (mg), bid q4h
[18] = 1000 mg, Total Daily Dose 1000 (mg), bid q6h
[19] = 1400 mg, Total Daily Dose 1400 (mg), bid q4h
[20] = 1500 mg, Total Daily Dose 1500 (mg), tid q4h
[21] = 2000 mg, Total Daily Dose 2000 (mg), bid q4h

CC(=O)c1cc2c(o1)C(=O)c1ccccc1C2=O [Compound 1, 2-acetylnaphtho[2,3-b]furan-4,9-dione]
antitumor activity in a kidney with colon cancer lesions ([1]; 20 mg QD, very high concentration of the drug in urine): signs of particularly potent antitumor activity
regression of a colon cancer metastatic lesion to kidney ([1]; Patient 0001): complete regression
disease control (disease stabilization and tumor regression), patients evaluable for tumor response ([1]; Phase I, tumors refractory to chemotherapies): 65%
Weeks on Study [1, 4]: 76 weeks
regression [1, 4]: 22%
Weeks on Study ([1]; Total Daily Dose 80 mg, Head and fleck carcinoma): 17 weeks
Weeks on Study ([1]; Total Daily Dose 320 mg, Colon adenocarcinoma (two patients)): 24 weeks and 12 weeks
CEA [1, 5]: 50%
Weeks on Study [1, 5]: 11 weeks
Weeks on Study ([1]; Total Daily Dose 400 mg, Gastric adenocarcinoma): 19 weeks
CA125 [1, 6]: CA125 normalization
Weeks on Study [1, 6]: 16 weeks
Weeks on Study [1, 7]: 29 weeks
outcome after surgical resection of remaining hollowed lesion [1, 7]: resected; patient disease free)
Weeks on Study ([1]; Total Daily Dose 800 mg, Chondrosarocoma): 13 weeks
Weeks on Study ([1]; Total Daily Dose 1000 mg, Adrenocarticoid carcinoma): 17 weeks
Weeks on Study ([1]; Total Daily Dose 1000 mg, Colon: adencarcinoma): 16 weeks
Weeks on Study ([1]; Total Daily Dose 1400 mg, Melanona): 16 weeks
patient exposure, 500 mg three times a day (TID) versus twice daily ([2]; human subjects): not significantly improved
Tmax [2, 8]: 3 h
AUC(0-t) [2, 8]: 2.01 µM·h
concentration at 24 h [2, 8]: 30 nM
half-life [2, 8]: 18.5 h
Cmax [2, 9]: 500 nM
Tmax [2, 9]: 0.5 h
AUC(0-t) [2, 9]: 3.44 µM·h
concentration at 24 h [2, 9]: 30 nM
half-life [2, 9]: 4.5 h
AUC [2, 10]: 8.13 µM·h
Cmax [2, 10]: 900 nM
Tmax [2, 10]: 8.1 h
AUC(0-t) [2, 10]: 7.95 µM·h
concentration at 24 h [2, 10]: 30 nM
half-life [2, 10]: 3.6 h
Cmax [2, 11]: 2240 nM
Tmax [2, 11]: 1.5 h
AUC(0-t) [2, 11]: 12.8 µM·h
concentration at 24 h [2, 11]: 70 nM
half-life [2, 11]: 5.2 h
Cmax [2, 12]: 1330 nM
Tmax [2, 12]: 3.9 h
AUC [2, 13]: 38.3 µM·h
Cmax [2, 13]: 2920 nM
Tmax [2, 13]: 3.8 h
AUC(0-t) [2, 13]: 33.1 µM·h
concentration at 24 h [2, 13]: 240 nM
half-life [2, 13]: 5.7 h
AUC [2, 14]: 48.2 µM·h
Cmax [2, 14]: 3750 nM
Tmax [2, 14]: 7.9 h
AUC(0-t) [2, 14]: 40.2 µM·h
concentration at 24 h [2, 14]: 620 nM
half-life [2, 14]: 6.9 h
AUC [2, 15]: 37.1 µM·h
Cmax [2, 15]: 2670 nM
Tmax [2, 15]: 3.2 h
AUC(0-t) [2, 15]: 27.8 µM·h
concentration at 24 h [2, 15]: 420 nM
half-life [2, 15]: 9 h
AUC [2, 16]: 27 µM·h
Cmax [2, 16]: 3040 nM
Tmax [2, 16]: 4.3 h
AUC(0-t) [2, 16]: 26.1 µM·h
concentration at 24 h [2, 16]: 160 nM
half-life [2, 16]: 4 h
AUC [2, 17]: 50.7 µM·h
Cmax [2, 17]: 4970 nM
Tmax [2, 17]: 6.6 h
AUC(0-t) [2, 17]: 45.1 µM·h
concentration at 24 h [2, 17]: 290 nM
half-life [2, 17]: 6.6 h
AUC [2, 18]: 22.9 µM·h
Cmax [2, 18]: 1360 nM
Tmax [2, 18]: 5.7 h
AUC(0-t) [2, 18]: 15.8 µM·h
concentration at 24 h [2, 18]: 330 nM
half-life [2, 18]: 12.7 h
AUC [2, 19]: 45 µM·h
Cmax [2, 19]: 2050 nM
Tmax [2, 19]: 2.9 h
AUC(0-t) [2, 19]: 28.2 µM·h
concentration at 24 h [2, 19]: 650 nM
half-life [2, 19]: 13.6 h
AUC [2, 20]: 59.9 µM·h
Cmax [2, 20]: 3750 nM
Tmax [2, 20]: 7.3 h
AUC(0-t) [2, 20]: 46.4 µM·h
concentration at 24 h [2, 20]: 940 nM
half-life [2, 20]: 8.2 h
AUC [2, 21]: 45.8 µM·h
Cmax [2, 21]: 1690 nM
Tmax [2, 21]: 6.3 h
AUC(0-t) [2, 21]: 25.9 µM·h
concentration at 24 h [2, 21]: 800 nM
half-life [2, 21]: 17.2 h
pharmacokinetics, 500 mg BID (q4h) versus 500 mg QD ([2]; patients, FIG. 1): no significant difference
Tmax ([3]; Patient 20, Fasting): 2 h
Tmax ([3]; Patient 20, With Food): 8 h
Tmax ([3]; Patient 20, With Milk): 2 h
Tmax ([3]; Patient 21, Fasting): 6 h
Tmax ([3]; Patient 21, With Food): 6 h
Tmax ([3]; Patient 21, With Milk): 6 h
Tmax ([3]; Patient 22, Fasting): 8 h
Tmax ([3]; Patient 22, With Food): 10 h
Tmax ([3]; Patient 22, With Milk): 8 h
Tmax ([3]; Patient 24, With Food): 10 h
Tmax ([3]; Patient 24, With Milk): 6.3 h
Tmax ([3]; Patient 27, With Food): 6 h
Tmax ([3]; Patient 27, With Milk): 0.5 h
Tmax ([3]; Patient 28, With Food): 10 h
Tmax ([3]; Patient 28, With Milk): 6 h
AUC0-24hrs Fold Change ([3]; with Milk versus Fasting): 1.56 and 1.55
Cmax Fold Change ([3]; with Milk versus Fasting): 1.52 and 1.13
accumulation of β-catenin in cell nucleus in tumor tissues (IHC) (β-catenin): effective in removing or preventing the accumulation of β-catenin in cell nucleus
